From patent publication US4562205A, “Derivatives of 2-aminoacetic acid” (Continental Pharma Inc., priority 1983, dated 1985)
Where two headings read alike, the source gives them in different places.

Assays:
in vivo [1] = settings: mouse, in vivo, po
Text: (§1) In further pharmacological tests the acute toxicity and the effect on behaviour have been examined. The effect on behaviour has been studied using a method derived from the one of S. Irvin [Gordon Res. Conf. on Medicinal Chemistry, p. 1933 (1959) as cited by R. A. Turner (Screening Methods in Pharmacology, Acad. Press, 1965, Chapter III, pages 22-34)].
(§2) No further testing has been made when a dose has been reached at which no abnormal behaviour or toxicity has been observed. […] The deaths were registered for 14 days following the treatment.
(§3) The LD50 value, i.e. the dose expressed in mg/kg which is lethal for 50% of the animals, has been calculated according to the Litchfield and Wilcoxon method [J. Pharmacol. Exp. Ther., 96, 99 (1949)].

mice [2] = test: in vivo; settings: mice; for deaths: 3000 mg/kg per os
Text: as §1, §2, §3

in vivo [3] = settings: mouse, in vivo, po; remark: listed apart in the source
Text: as §1, §2

mice [4] = test: in vivo; settings: oral, mice
Text: as §1, §2

[5] = tested on: convulsions induced by bicuculline in mice; test: Anti-convulsant activity against bicuculline-induced convulsions (protection against tonic extension); format: in vivo, mice (CDl-Charles River); settings: for potency compared with reference (in words): ED50 comparison, bicuculline test; for ED50: Mus musculus, 3 h, read-out: ED50 (dose providing protection against tonic extension of 50% of the animals); for % of protection (against tonic extension): 10 mg/kg, 20 mice
Description: The compounds tested, 2-pentanoylaminoacetic acid (compound I), sodium 2-pentanoylaminoacetate (compound II) or sodium valproate (a generally accepted reference substance), have been administered orally to 20 mice (CDl-Charles River) at a dose of 10 mg/kg as a suspension in a 1% tragacanth gum mucilage. Administration has been done by means of an intragastric tube.
Three hours later, bicuculline has been administered at a dose of 0,7 mg/kg by intravenous injection in the lateral vein of the tail.
The anti-convulsant activity of the compounds has been further evaluated, using the technique described hereinabove, by examining the effect at different doses. From the experimental data, the ED50 value has been calculated, i.e. the effective dose (mg/kg) providing protection against tonic extension of 50% of the animals.

[6] = oral, different doses, bicuculline 0,7 mg/kg i.v. three hours later, mice
[7] = oral, bicuculline 0,7 mg/kg i.v. three hours later

SMILES	LD50 at 336 h (in vivo [1])	deaths (mice [2])	MTD at 336 h (in vivo [3])	selectivity ratio (in vivo [3]; TI-B (MTD/ED50), therapeutical index, mice)	toxicity and effect on behaviour (in words) (mice [4])	potency compared with reference (in words) ([5]; mice)	ED50 [5, 6]	anti-convulsant activity (in words) ([5]; convulsions induced by bicuculline in mice)	% of protection (against tonic extension) [5, 7]	TI-A (LD50/ED50) (mice [2]; therapeutical index, oral)	TI-B (MTD/ED50) (mice [4]; therapeutical index)	ED50 ([5]; po)
CCCCC(=O)NCC(=O)O [compound I, 2-pentanoylaminoacetic acid]	> 3000 mg/kg	no deaths	≥ 3000 mg/kg	> 280	very weak	more potent	10.7 mg/kg	potent anti-convulsant activity	55%			
CCCCC(=O)NCC(=O)[O-].[Na+]	> 3000 mg/kg	no deaths	≥ 3000 mg/kg		very weak	more potent			55%	> 326	> 326	9.2 mg/kg
CCCC(CCC)C(=O)[O-].[Na+] [sodium valproate, reference compound]							29 mg/kg		40%			
